Patent US6355799B1, “Substituted benzene compounds, process for their preparation, and herbicidal and defoliant compositions containing them” (ISK Americas Incorporated, priority 1997, dated 2002)

Experiments:
Assay type in all cases: in vivo
[1] = system: barnyardgrass (Echinochloa crus-galli, ECHCG); experiment: Pre-emerge test, greenhouse herbicide activity screening; settings: pre-emerge, 14 days after application, scale 0-100
Method in brief: (§1)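 Compounds in acetone were track-sprayed at 187 l/ha, 15–1000 g ai/ha, onto sandy loam pots. Pre-emerge seeds were sown one day before spraying, with surface watering afterwards. Post-emerge plants were at the 2–3 leaf stage and sprayed with 0.25% v/v non-ionic surfactant. Injury was rated 0–100 at 14 days.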

[2] = system: johnsongrass (Sorghum halepense, SORHA); experiment: as above; settings: pre-emerge, 14 days after application, scale 0-100
Method in brief: as §1

[3] = system: ivyleaf morningglory (Ipomoea hederacea, IPOHE); experiment: as above; settings: pre-emerge, 14 days after application, scale 0-100
Method in brief: as §1

[4] = system: large crabgrass (Digitaria sanguinalis, DIGSA); experiment: as above; settings: pre-emerge, 14 days after application, scale 0-100
Method in brief: as §1

[5] = system: sicklepod (Cassia obtusifolia, CASOB); experiment: as above; settings: pre-emerge, 14 days after application, scale 0-100
Method in brief: as §1

[6] = system: velvetleaf (Abutilon theophrasti, ABUTH); experiment: as above; settings: pre-emerge, 14 days after application, scale 0-100
Method in brief: as §1

[7] = system: green foxtail (Setaria viridis, SETVI); experiment: as above; settings: pre-emerge, 14 days after application, scale 0-100
Method in brief: as §1

[8] = system: lambsquarters (Chenopodium album, CHEAL); experiment: as above; settings: pre-emerge, 14 days after application, scale 0-100
Method in brief: as §1

[9] = system: redroot pigweed (Amaranthus retroflexus, AMARE); experiment: as above; settings: pre-emerge, 14 days after application, scale 0-100
Method in brief: as §1

[10] = system: field corn (Zea mays L., var. Dekalb 535, CORN); experiment: Post-emerge test, crop safety; settings: post-emerge, 14 days after application, rating scale 0-100
Method in brief: as §1

[11] = system: upland rice (Oryza sp., var. Tebonnet, RICE); experiment: Post-emerge test, crop safety; settings: post-emerge, 14 days after application, rating scale 0-100
Method in brief: as §1

[12] = system: barnyardgrass (Echinochloa crus-galli, ECHCG); experiment: Post-emerge test, greenhouse herbicide activity screening; settings: post-emerge, 14 days after application, rating scale 0-100
Method in brief: (§2)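 Applied at 15–1000 g ai/ha from acetone in 187 l/ha spray volume. Post-emergence applications included 0.25% v/v non-ionic surfactant and reached plants sown 8–21 days before. Pre-emergence applications were incorporated by surface watering. Efficacy or crop damage was rated on a 0–100 scale after 14 days.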

[13] = system: common ragweed (Ambrosia artemisizfolia L., AMBEL); experiment: as above; settings: post-emerge, 14 days after application, rating scale 0-100
Method in brief: as §2

[14] = system: johnsongrass (Sorghum halepense, SORHA); experiment: as above; settings: post-emerge, 14 days after application, rating scale 0-100
Method in brief: as §2

[15] = system: ivyleaf morningglory (Ipomoea hederacea, IPOHE); experiment: as above; settings: post-emerge, 14 days after application, rating scale 0-100
Method in brief: as §2

[16] = system: large crabgrass (Digitaria sanguinalis, DIGSA); experiment: as above; settings: post-emerge, 14 days after application, rating scale 0-100
Method in brief: as §2

[17] = system: sicklepod (Cassia obtusifolia, CASOB); experiment: as above; settings: post-emerge, 14 days after application, rating scale 0-100
Method in brief: as §2

[18] = system: redroot pigweed (Amaranthus retroflexus, AMARE); experiment: as above; settings: post-emerge, 14 days after application, rating scale 0-100
Method in brief: as §2

[19] = system: velvetleaf (Abutilon theophrasti, ABUTH); experiment: as above; settings: post-emerge, 14 days after application, rating scale 0-100
Method in brief: as §2

[20] = system: green foxtail (Setaria viridis, SETVI); experiment: as above; settings: post-emerge, 14 days after application, rating scale 0-100
Method in brief: as §2

[21] = system: lambsquarters (Chenopodium album, CHEAL); experiment: as above; settings: post-emerge, 14 days after application, rating scale 0-100
Method in brief: as §2

[22] = system: field corn (Zea mays L., var. Dekalb 535, CORN); experiment: Pre-emerge test, crop safety; settings: pre-emerge, 14 days after application, scale 0-100
Method in brief: as §2

[23] = system: upland rice (Oryza sp., var. Tebonnet, RICE); experiment: Pre-emerge test, crop safety; settings: pre-emerge, 14 days after application, scale 0-100
Method in brief: as §2

COc1c(Cl)cc(F)c(-n2c(=O)cc(C(F)(F)F)n(C)c2=O)c1NC(=O)CSC(C)C [2-173]
phytotoxicity rating ECHCG ([1]; 63 g ai/ha): 0 | phytotoxicity rating ECHCG ([1]; 250 g ai/ha): 20 | phytotoxicity rating SORHA ([2]; 63 g ai/ha): 0 | phytotoxicity rating SORHA ([2]; 250 g ai/ha): 10 | phytotoxicity rating IPOHE ([3]; 63 g ai/ha): 0 | phytotoxicity rating IPOHE ([3]; 250 g ai/ha): 40 | phytotoxicity rating DIGSA ([4]; 63 g ai/ha): 30 | phytotoxicity rating DIGSA ([4]; 250 g ai/ha): 80 | phytotoxicity rating CASOB ([5]; 63 g ai/ha): 30 | phytotoxicity rating CASOB ([5]; 250 g ai/ha): 70 | phytotoxicity rating ABUTH ([6]; 63 g ai/ha): 95 | phytotoxicity rating ABUTH ([6]; 250 g ai/ha): 100 | phytotoxicity rating SETVI ([7]; 63 g ai/ha): 40 | phytotoxicity rating SETVI ([7]; 250 g ai/ha): 80 | phytotoxicity rating CHEAL ([8]; 63 g ai/ha): 90 | phytotoxicity rating CHEAL ([8]; 250 g ai/ha): 100 | phytotoxicity rating AMARE ([9]; 63 g ai/ha): 30 | phytotoxicity rating AMARE ([9]; 250 g ai/ha): 100 | CORN phytotoxicity rating (crop damage) ([10]; 63 g ai/ha): 0 | CORN phytotoxicity rating (crop damage) ([10]; 250 g ai/ha): 25 | RICE phytotoxicity rating (crop damage) ([11]; 63 g ai/ha): 0 | RICE phytotoxicity rating (crop damage) ([11]; 250 g ai/ha): 10 | ECHCG phytotoxicity rating ([12]; 63 g ai/ha): 0 | ECHCG phytotoxicity rating ([12]; 250 g ai/ha): 0 | AMBEL phytotoxicity rating ([13]; 63 g ai/ha): 30 | AMBEL phytotoxicity rating ([13]; 250 g ai/ha): 50 | SORHA phytotoxicity rating ([14]; 63 g ai/ha): 0 | SORHA phytotoxicity rating ([14]; 250 g ai/ha): 0 | IPOHE phytotoxicity rating ([15]; 63 g ai/ha): 100 | IPOHE phytotoxicity rating ([15]; 250 g ai/ha): 80 | DIGSA phytotoxicity rating ([16]; 63 g ai/ha): 0 | DIGSA phytotoxicity rating ([16]; 250 g ai/ha): 0 | CASOB phytotoxicity rating ([17]; 63 g ai/ha): 50 | CASOB phytotoxicity rating ([17]; 250 g ai/ha): 70 | AMARE phytotoxicity rating ([18]; 63 g ai/ha): 50 | AMARE phytotoxicity rating ([18]; 250 g ai/ha): 50 | ABUTH phytotoxicity rating ([19]; 63 g ai/ha): 60 | ABUTH phytotoxicity rating ([19]; 250 g ai/ha): 100 | SETVI phytotoxicity rating ([20]; 63 g ai/ha): 0 | SETVI phytotoxicity rating ([20]; 250 g ai/ha): 0 | CHEAL phytotoxicity rating ([21]; 63 g ai/ha): 40 | CHEAL phytotoxicity rating ([21]; 250 g ai/ha): 65 | phytotoxicity rating CORN (crop damage) ([22]; 63 g ai/ha): 0 | phytotoxicity rating CORN (crop damage) ([22]; 250 g ai/ha): 20 | phytotoxicity rating RICE (crop damage) ([23]; 63 g ai/ha): 0 | phytotoxicity rating RICE (crop damage) ([23]; 250 g ai/ha): 50
